# Assay results as given in patent publication US7854753B2, “Photokinetic delivery of biologically active substances using pulsed incoherent light” (Photokinetix, Inc., priority 2002, dated 2010).
# Assay: Franz skin diffusion cell permeation (percutaneous absorption) under ambient, natural or pulsed incoherent LED light
# Conditions: for Permeation Dark: ambient light absent; for Permeation Ctrl: ambient cool fluorescent light only, 260-750 nm, 120 cps; for Permeation Ctrl-TiO2: ambient fluorescent light, sample with 2% (w/w) rutile TiO2; for 405/1.7 / 405/9.7 / 405/24: Table 10; for 405/1.7: 1.7 cps; for 405/9.7: 9.7 cps; for 405/24: 24 cps; for Ctrl: Table 10 peptides, ambient light only
# [1] = 350 + TiO2, 24 cps vs Dark-TiO2
# [2] = 350 + TiO2, 80 cps vs Dark-TiO2
# [3] = 390 + TiO2, 24 cps vs Dark-TiO2
# [4] = 390 + TiO2, 80 cps vs Dark-TiO2
# [5] = 405 + TiO2, 24 cps vs Dark-TiO2
# [6] = 405 + TiO2, 80 cps vs Dark-TiO2
# [7] = 450 + TiO2, 24 cps vs Dark-TiO2
# [8] = 450 + TiO2, 80 cps vs Dark-TiO2
# [9] = Dark-TiO2 control (2% TiO2), 24 cps series
# [10] = Dark-TiO2 control (2% TiO2), 80 cps series
# [11] = Day (natural daylight, not pulsed), control of the 24 cps series
# [12] = Day (natural daylight, not pulsed), control of the 80 cps series
# [13] = Day-TiO2 (natural daylight, 2% TiO2, not pulsed), control of the 24 cps series
# [14] = Day-TiO2 (natural daylight, 2% TiO2, not pulsed), control of the 80 cps series
# [15] = Day-TiO2 vs Dark-TiO2, 24 cps series
# [16] = Day-TiO2 vs Dark-TiO2, 80 cps series
compound,measurement,setting,value
"Cn1c(=O)c2c(ncn2C)n(C)c1=O [Compound 9, Caffeine]",Permeation Dark,Dark control,269.40 μg/0.64 cm^2/25 hrs
same,Permeation Ctrl,,168.70 μg/0.64 cm^2/25 hrs
same,Permeation Ctrl-TiO2,,47.22 μg/0.64 cm^2/25 hrs
"CC(C)[C@H](N)C(=O)N[C@@H](Cc1ccc(O)cc1)C(=O)N[C@H](C(=O)O)C(C)C [Compound 12, Val-Tyr-Val]","% Permeation (percent increase or decrease vs dark baseline, equation 1)",[1],66.64%
same,"% Permeation (percent increase or decrease vs dark baseline, equation 1)",[2],65.49%
same,Permeation,"350 + TiO2, pulse rate 24 cps",18.98 μg/cm^2/24 hrs
same,Permeation,"350 + TiO2, pulse rate 80 cps",16.45 μg/cm^2/24 hrs
same,Permeation,"350 nm LED, pulse rate 24 cps",22.69 μg/cm^2/24 hrs
same,Permeation,"350 nm LED, pulse rate 80 cps",17.41 μg/cm^2/24 hrs
same,"% Permeation (percent increase or decrease vs dark baseline, equation 1)","350 nm, 24 cps vs Dark",50.96%
same,"% Permeation (percent increase or decrease vs dark baseline, equation 1)","350 nm, 80 cps vs Dark",94.09%
same,"% Permeation (percent increase or decrease vs dark baseline, equation 1)",[3],11.76%
same,"% Permeation (percent increase or decrease vs dark baseline, equation 1)",[4],95.88%
same,Permeation,"390 + TiO2, pulse rate 24 cps",12.73 μg/cm^2/24 hrs
same,Permeation,"390 + TiO2, pulse rate 80 cps",19.47 μg/cm^2/24 hrs
same,Permeation,"390 nm LED, pulse rate 24 cps",21.47 μg/cm^2/24 hrs
same,Permeation,"390 nm LED, pulse rate 80 cps",18.70 μg/cm^2/24 hrs
same,"% Permeation (percent increase or decrease vs dark baseline, equation 1)","390 nm, 24 cps vs Dark",42.85%
same,"% Permeation (percent increase or decrease vs dark baseline, equation 1)","390 nm, 80 cps vs Dark",108.47%
same,"% Permeation (percent increase or decrease vs dark baseline, equation 1)",[5],−44.16%
same,"% Permeation (percent increase or decrease vs dark baseline, equation 1)",[6],101.11%
same,Permeation,"405 + TiO2, pulse rate 24 cps",6.36 μg/cm^2/24 hrs
same,Permeation,"405 + TiO2, pulse rate 80 cps",19.99 μg/cm^2/24 hrs
same,Permeation,"405 nm LED, pulse rate 24 cps",12.32 μg/cm^2/24 hrs
same,Permeation,"405 nm LED, pulse rate 80 cps",19.89 μg/cm^2/24 hrs
same,"% Permeation (percent increase or decrease vs dark baseline, equation 1)","405 nm, 24 cps vs Dark",−18.03%
same,"% Permeation (percent increase or decrease vs dark baseline, equation 1)","405 nm, 80 cps vs Dark",121.74%
same,"% Permeation (percent increase or decrease vs dark baseline, equation 1)",[7],−33.98%
same,"% Permeation (percent increase or decrease vs dark baseline, equation 1)",[8],48.29%
same,Permeation,"450 + TiO2, pulse rate 24 cps",7.52 μg/cm^2/24 hrs
same,Permeation,"450 + TiO2, pulse rate 80 cps",14.74 μg/cm^2/24 hrs
same,Permeation,"450 nm LED, pulse rate 24 cps",9.51 μg/cm^2/24 hrs
same,Permeation,"450 nm LED, pulse rate 80 cps",17.39 μg/cm^2/24 hrs
same,"% Permeation (percent increase or decrease vs dark baseline, equation 1)","450 nm, 24 cps vs Dark",−36.73%
same,"% Permeation (percent increase or decrease vs dark baseline, equation 1)","450 nm, 80 cps vs Dark",93.87%
same,Permeation Dark,Dark control,37.24 μg/0.64 cm^2/25 hrs
same,Permeation,"Dark control, 24 cps series",15.03 μg/cm^2/24 hrs
same,Permeation,"Dark control, 80 cps series",8.97 μg/cm^2/24 hrs
same,Permeation,[9],11.39 μg/cm^2/24 hrs
same,Permeation,[10],9.94 μg/cm^2/24 hrs
same,Permeation,[11],8.27 μg/cm^2/24 hrs
same,Permeation,[12],11.32 μg/cm^2/24 hrs
same,"% Permeation (percent increase or decrease vs dark baseline, equation 1)","Day vs Dark, 24 cps series",−44.98%
same,"% Permeation (percent increase or decrease vs dark baseline, equation 1)","Day vs Dark, 80 cps series",26.20%
same,Permeation,[13],11.11 μg/cm^2/24 hrs
same,Permeation,[14],13.64 μg/cm^2/24 hrs
same,"% Permeation (percent increase or decrease vs dark baseline, equation 1)",[15],−2.55%
same,"% Permeation (percent increase or decrease vs dark baseline, equation 1)",[16],37.22%
same,405/1.7,405 nm,23.21
same,405/9.7,405 nm,91.68
same,405/24,405 nm,48.83
same,Ctrl,,35.26
same,Permeation Ctrl,,35.26 μg/0.64 cm^2/25 hrs
same,Permeation Ctrl-TiO2,,41.18 μg/0.64 cm^2/25 hrs
"CC(C)C[C@H](NC(=O)[C@H](Cc1ccccc1)NC(=O)CNC(=O)CNC(=O)[C@@H](N)Cc1ccc(O)cc1)C(=O)O [Compound 14, Leucine Enkephalin (Tyr-Gly-Gly-Phe-Leu)]","% Permeation (percent increase or decrease vs dark baseline, equation 1)",[1],8.58%
same,"% Permeation (percent increase or decrease vs dark baseline, equation 1)",[2],39.43%
same,Permeation,"350 + TiO2, pulse rate 24 cps",73.17 μg/cm^2/24 hrs
same,Permeation,"350 + TiO2, pulse rate 80 cps",28.50 μg/cm^2/24 hrs
same,Permeation,"350 nm LED, pulse rate 24 cps",84.44 μg/cm^2/24 hrs
same,Permeation,"350 nm LED, pulse rate 80 cps",31.30 μg/cm^2/24 hrs
same,"% Permeation (percent increase or decrease vs dark baseline, equation 1)","350 nm, 24 cps vs Dark",−21.59%
same,"% Permeation (percent increase or decrease vs dark baseline, equation 1)","350 nm, 80 cps vs Dark",72.36%
same,"% Permeation (percent increase or decrease vs dark baseline, equation 1)",[3],54.21%
same,"% Permeation (percent increase or decrease vs dark baseline, equation 1)",[4],55.14%
same,Permeation,"390 + TiO2, pulse rate 24 cps",103.92 μg/cm^2/24 hrs
same,Permeation,"390 + TiO2, pulse rate 80 cps",31.71 μg/cm^2/24 hrs
same,Permeation,"390 nm LED, pulse rate 24 cps",108.49 μg/cm^2/24 hrs
same,Permeation,"390 nm LED, pulse rate 80 cps",31.32 μg/cm^2/24 hrs
same,"% Permeation (percent increase or decrease vs dark baseline, equation 1)","390 nm, 24 cps vs Dark",0.74%
same,"% Permeation (percent increase or decrease vs dark baseline, equation 1)","390 nm, 80 cps vs Dark",72.47%
same,"% Permeation (percent increase or decrease vs dark baseline, equation 1)",[5],322.29%
same,"% Permeation (percent increase or decrease vs dark baseline, equation 1)",[6],−35.47%
same,Permeation,"405 + TiO2, pulse rate 24 cps",284.58 μg/cm^2/24 hrs
same,Permeation,"405 + TiO2, pulse rate 80 cps",13.19 μg/cm^2/24 hrs
same,Permeation,"405 nm LED, pulse rate 24 cps",87.52 μg/cm^2/24 hrs
same,Permeation,"405 nm LED, pulse rate 80 cps",20.82 μg/cm^2/24 hrs
same,"% Permeation (percent increase or decrease vs dark baseline, equation 1)","405 nm, 24 cps vs Dark",−18.73%
same,"% Permeation (percent increase or decrease vs dark baseline, equation 1)","405 nm, 80 cps vs Dark",14.65%
same,"% Permeation (percent increase or decrease vs dark baseline, equation 1)",[7],158.04%
same,"% Permeation (percent increase or decrease vs dark baseline, equation 1)",[8],45.45%
same,Permeation,"450 + TiO2, pulse rate 24 cps",173.89 μg/cm^2/24 hrs
same,Permeation,"450 + TiO2, pulse rate 80 cps",29.73 μg/cm^2/24 hrs
same,Permeation,"450 nm LED, pulse rate 24 cps",29.25 μg/cm^2/24 hrs
same,Permeation,"450 nm LED, pulse rate 80 cps",21.81 μg/cm^2/24 hrs
same,"% Permeation (percent increase or decrease vs dark baseline, equation 1)","450 nm, 24 cps vs Dark",−72.84%
same,"% Permeation (percent increase or decrease vs dark baseline, equation 1)","450 nm, 80 cps vs Dark",20.10%
same,Permeation Dark,Dark control,41.68 μg/0.64 cm^2/25 hrs
same,Permeation,"Dark control, 24 cps series",107.69 μg/cm^2/24 hrs
same,Permeation,"Dark control, 80 cps series",18.16 μg/cm^2/24 hrs
same,Permeation,[9],67.39 μg/cm^2/24 hrs
same,Permeation,[10],20.44 μg/cm^2/24 hrs
same,Permeation,[11],37.31 μg/cm^2/24 hrs
same,Permeation,[12],20.89 μg/cm^2/24 hrs
same,"% Permeation (percent increase or decrease vs dark baseline, equation 1)","Day vs Dark, 24 cps series",−65.35%
same,"% Permeation (percent increase or decrease vs dark baseline, equation 1)","Day vs Dark, 80 cps series",15.03%
same,Permeation,[13],46.85 μg/cm^2/24 hrs
same,Permeation,[14],18.64 μg/cm^2/24 hrs
same,"% Permeation (percent increase or decrease vs dark baseline, equation 1)",[15],−30.48%
same,"% Permeation (percent increase or decrease vs dark baseline, equation 1)",[16],−8.81%
same,405/1.7,405 nm,40.38
same,405/9.7,405 nm,1.23
same,405/24,405 nm,0.00
same,Ctrl,,0.00
same,Permeation Ctrl,,0.00 μg/0.64 cm^2/25 hrs
same,Permeation Ctrl-TiO2,,0.00 μg/0.64 cm^2/25 hrs
CC[C@H](C)[C@H](NC(=O)[C@H](Cc1ccc(O)cc1)NC(=O)[C@@H](NC(=O)[C@H](CCCNC(=N)N)NC(=O)[C@@H](N)CC(=O)O)C(C)C)C(=O)N[C@@H](Cc1cnc[nH]1)C(=O)N1CCC[C@H]1C(=O)N[C@@H](Cc1ccccc1)C(=O)O [Compound 15],Permeation Dark,Dark control,42.80 μg/0.64 cm^2/25 hrs
same,405/1.7,405 nm,19.99
same,405/9.7,405 nm,73.19
same,405/24,405 nm,3.87
same,Ctrl,,0.00
same,Permeation Ctrl,,0.00 μg/0.64 cm^2/25 hrs
same,Permeation Ctrl-TiO2,,0.00 μg/0.64 cm^2/25 hrs
